According to PubChem BioAssay AID179 (DTP/NCI, 2004):
pEC50, pIC50: −log10 of the molar value. Active and inactive are the calls of the source.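 How the source made its calls: active means compounds giving half or more protection of infected cells from virus-caused growth loss, again on retest; inactive means the rest.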 Where a SMILES comes first, the peptide text is derived from it.

System: CEM cells HIV-1 protection, formazan growth assay
Assay: NCI AIDS Antiviral Assay
Settings: for pIC50: measured here: growth of uninfected CEM cells
Summary of the method: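 Soluble formazan readout of cell growth; CEM cells ± HIV-1; 5 drug concs. ≥50% protection → retest; ≥50% again = moderately active; reproducible 100% = confirmed active.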

`Cc1ccc(N2C(=O)/C(=C3\Sc4c(nc(C)[nH]c4=O)N3c3ccccc3)SC2=S)cc1` showed a pEC50 of under 5.39 and a pIC50 of under 5.39.

Compound `CC(C)(C)[Si](OC1CC(n2cnc3c(N)ncnc32)OC1CO)(c1ccccc1)c1ccccc1` (stereo not drawn) has a pEC50 of under 4.00 and a pIC50 of under 4.00.

`CCC(NC(C)c1ccccc1)C(O)c1ccc(OCc2ccccc2)c(OCc2ccccc2)c1` (stereo not drawn) showed a pEC50 of under 3.70 and a pIC50 of 4.97.

`O=C(CCCn1ccnc1[N+](=O)[O-])NCCn1cnc([N+](=O)[O-])n1` gave a pEC50 of under 3.70 and a pIC50 of under 3.70.

Work on `CC1(C)Oc2ccc3ccc(=O)oc3c2[C@@H](OC(=O)C23CCC(C)(C(=O)O2)C3(C)C)[C@H]1OC(=O)C12CCC(C)(C(=O)O1)C2(C)C` (stereo partly drawn) yielded a pEC50 of 5.53 and a pIC50 of 4.85.

Compound `COC(=O)C1(Cc2ccccc2)Cc2ccccc2C1` has a pEC50 of under 3.70 and a pIC50 of 4.45.

With `C/C=C1\C=[N+]([O-])C2CC1C(C(=O)OC)C13C[C@@H](OC)OC21Nc1ccccc13` (stereo partly drawn) the outcome was “inactive”.

`O=C(O)c1ccccc1/C=N/NC1=NCCN1` was tested, and the pEC50 was under 3.70 and the pIC50 was 4.07.

`O=C(/C=C/c1ccsc1)c1ccc(Cl)cc1` showed a pEC50 of under 3.70 and a pIC50 of 5.48.

Work on `O=C(Cc1ccccc1)NN1C(=O)C(Cl)C1c1ccc(O)cc1` (stereo not drawn) yielded a pEC50 of under 3.69 and a pIC50 of 3.77.

For `CN(c1ccccc1)S(=O)(=O)c1cccc([N+](=O)[O-])c1`, the pEC50 was 4.30 and the pIC50 was 3.98.

In the case of `C(=Nc1ccc(/C=C\c2ccnc3ccccc23)cc1)Nc1ccc(/C=C\c2ccnc3ccccc23)cc1`, the pEC50 was under 5.12 and the pIC50 was 5.25.

`O=C(CC(=O)Nc1ccccc1)NNC(Sc1ccccc1)c1cc(N=Nc2ccc(Br)cc2)ccc1O` (stereo not drawn) was tested, and the outcome was “inactive”.

Work on `Cc1ccc(S(=O)(=O)N/N=C2/CC3CCC2C3)cc1` (stereo not drawn) yielded a pEC50 of under 3.70 and a pIC50 of under 3.70.

For `COc1cccc(C2SCc3nc4ccccc4n32)c1` (stereo not drawn), the outcome was “inactive”.

In the case of `c1c[nH]c(Cc2ncc(Cc3cnc[nH]3)[nH]2)n1`, the outcome was “inactive”.

Compound `NCC(=O)NC1(C(=O)O)CCCC1` (HELM PEPTIDE1{G.[O=C(O)C1(N[*:1])CCCC1]}$$$$V2.0) has a pEC50 of under 3.70 and a pIC50 of under 3.70.

`COC(=O)/C=C(/C(=O)OC)c1c(C)c(C)c2c(C)cc(C)cc(C)c1-2` showed a pEC50 of under 3.70 and a pIC50 of 5.00.

For `ClC1CCC2OOC1O2` (stereo not drawn), the outcome was “inactive”.

In the case of `CNn1c(-c2ccc(C)cc2)n[nH]c1=O`, the pEC50 was 4.31 and the pIC50 was 4.25.

For `O=C1[C@@H]2C(c3ccc(Cl)cc3Cl)=NO[C@@H]2C(=O)N1c1ccc(Cc2ccc(N3C(=O)[C@H]4C(c5ccc(Cl)cc5Cl)=NO[C@H]4C3=O)cc2)cc1`, the pEC50 was under 5.15 and the pIC50 was under 5.15.

`Cc1cccnc1CC(O)c1ccccc1` (stereo not drawn) gave a pEC50 of under 3.70 and a pIC50 of 3.97.

`CCC(=O)C1(c2ccccc2)CCN(C)CC1` showed a pEC50 of under 2.97.

Work on `COc1ccccc1C1OC(c2ccccc2OC)C2CCN(C)C2(C)O1` (stereo not drawn) yielded a pEC50 of under 3.70 and a pIC50 of under 3.70.

In the case of `CN(C)CCCNC(=O)CCNC(=O)c1cc(NC(=O)c2cc(NC(=O)c3cc(NC(=O)CCCNC(=O)c4cc(NC(=O)c5cc(NC(=O)c6nccn6C)cn5C)cn4C)cn3C)cn2C)cn1C`, the outcome was “inactive”.

`CCCCCCCCCCCc1c(O)c(O)cc2nc3cc(C(=O)NC(C(=O)O)C(C)C)ccc3nc12` (stereo not drawn) gave a pEC50 of under 4.85 and a pIC50 of under 4.85.

`O=C(/C=C/c1ccccc1)CSc1ncn[nH]1` showed a pEC50 of under 3.70 and a pIC50 of 4.92.

`N#Cc1nc(NC(=O)c2ccccc2)sc1N` was tested, and the pEC50 was under 3.70 and the pIC50 was 4.82.

`COc1ccc(C2OC[C@H]3O[C@@H](OCc4ccccc4)[C@H](O)[C@@H](O)[C@@H]3O2)cc1` (stereo partly drawn) showed a pEC50 of under 3.70 and a pIC50 of 4.45.

With `C=CC1(c2ccc(Cl)c(Cl)c2)OCCO1` the pEC50 was under 3.70 and the pIC50 was 3.78.

Work on `COC(=N)C1(C#N)NC(c2ccsc2)C(C#N)(C#N)NC1c1ccsc1` (stereo not drawn) yielded a pEC50 of under 3.70 and a pIC50 of 4.25.

With `Nc1ncnc2c1ncn2-c1ccc([N+](=O)[O-])cn1` the outcome was “inactive”.

For `Cc1ccc2c(c1)sc1nnc(S(C)(=O)=O)n12`, the pEC50 was under 3.70 and the pIC50 was 4.95.

`O=C(OCc1ccccc1)N1CC[C@@H](O)[C@@H](CNC23CC4CC(CC(C4)C2)C3)C1` showed a pEC50 of under 3.20 and a pIC50 of 4.63.

With `CS(=O)(=O)OCCC(=O)N1CCN(C(=O)CCOS(C)(=O)=O)CC1` the pEC50 was under 3.70 and the pIC50 was 4.45.

For `O=[N+]([O-])c1cc(-c2ccc([As](=O)(O)O)cc2)ccc1[As](=O)(O)O`, the pEC50 was under 3.70 and the pIC50 was under 3.70.

For `N#CC1Cc2cc3c(cc21)OCO3` (stereo not drawn), the pEC50 was under 3.70 and the pIC50 was under 3.70.

Compound `CNc1nc(N)c(N=O)c(Nc2ccc(Br)cc2)n1` has a pEC50 of under 3.70 and a pIC50 of 3.77.

For `O=C1CCCC1CC(CN1CCOCC1)Sc1nnnn1-c1ccccc1` (stereo not drawn), the pEC50 was under 3.70 and the pIC50 was under 3.70.

`CC(=O)OC1C(C)OC(OC2[C@@H]3C=CO[C@@H](OC4OC(CO)C(O)C(O)C4O)[C@@H]3[C@@]3(CO)O[C@@H]23)C(OC(=O)/C=C/c2ccccc2)C1OC(=O)/C=C/c1ccccc1` (stereo partly drawn) was tested, and the pEC50 was under 4.66 and the pIC50 was under 4.66.

For `Nc1nnn(N)n1`, the pEC50 was under 3.70 and the pIC50 was under 3.70.

With `CCN(CC)c1ccc2cc(C(N)=S)c(=N)oc2c1` the pEC50 was under 4.21 and the pIC50 was 4.69.

For `C=CC[C@H]1[C@@H](O[Si](C)(C)C(C)(C)C)[C@H](n2ccc(=O)[nH]c2=O)O[C@@H]1CO[Si](C)(C)C(C)(C)C`, the pEC50 was under 3.70 and the pIC50 was 5.00.

Compound `CC1OC(OC23C(=O)CC(C)(O)CC2(O)C=CC2=C3C(=O)c3ccc(C4CC(OC5CCC(OC6CC(O)C(O)C(C)O6)C(C)O5)C(O)C(C)O4)c(O)c3C2=O)CCC1O` (stereo not drawn) has a pEC50 of under 3.53 and a pIC50 of 5.31.

`O=c1oc2ccccc2c(O)c1C(C/C(CCN1CCCC1)=N/O)c1ccccc1` (stereo not drawn) was tested, and the pEC50 was under 4.37 and the pIC50 was under 4.37.

Compound `O=C(O)CCN(CCC(=O)O)CCN(CCC(=O)O)CCC(=O)O` has a pEC50 of under 3.23 and a pIC50 of under 3.23.

For `S=C1N/N=C/NN/C=N/N1`, the pEC50 was under 3.25 and the pIC50 was 3.55.

For `COc1cc2c(c([N+](=O)[O-])c1)NC(=O)CCS2`, the outcome was “inactive”.

In the case of `C[N+](C)(C)C1(C(=O)[O-])CC1`, the pEC50 was under 3.70 and the pIC50 was under 3.70.

`C=CCCCC(C(=O)OCC)C(=O)OCC` was tested, and the outcome was “inactive”.

Work on `CC(=O)N1CCN(C23OC4(N5CCN(C(C)=O)CC5)C5C6CC(C7C6C4C72)C53)CC1` (stereo not drawn) yielded a pEC50 of under 3.70 and a pIC50 of under 3.70.

`COC(=O)[C@@]12CC[C@]1(C(=O)OC)C1C(C)=CC(=O)O[C@@]12C` (stereo partly drawn) showed a pEC50 of under 3.70 and a pIC50 of under 3.70.

In the case of `O=C1C(Cl)=C(Cl)C(=O)N1C1C2CC3CC(C2)CC1C3` (stereo not drawn), the outcome was “inactive”.

Work on `CCOP(=O)(OCC)C(C)(C)N(C)/C(F)=N/C(F)(F)F` yielded a pEC50 of under 3.70 and a pIC50 of under 3.70.

With `CC1=C(C(=O)O)CCC2(C)C3=C(CCC12)C(=O)C(C(C)C)=CC3=O` (stereo not drawn) the pEC50 was under 3.70 and the pIC50 was 4.91.

`CCOC(=O)/C(=C\c1cccc(Cl)c1)[Se]c1ccccc1` showed a pEC50 of under 4.85 and a pIC50 of under 4.85.

`COc1ccc(/C=C2\C(=O)N(C(=O)c3ccc(NC(C)=O)cc3)N=C2C)cc1OC` was tested, and the pEC50 was under 5.03 and the pIC50 was under 5.03.

Compound `Cn1c2ccccc2c2cc(-c3ccccc3)c3c(c21)C(=O)c1ccccc1C3=O` has a pEC50 of under 4.87 and a pIC50 of under 4.87.

`Cc1ccccc1NC(=O)Cc1csc2[n+]1C(=O)/C(=C\c1ccc3c(c1)OCO3)S2` was tested, and the pEC50 was under 3.70 and the pIC50 was 4.41.

`CSSC(SC)SC` was tested, and the pEC50 was under 3.70 and the pIC50 was 4.48.

`CCN(CC)CCCC(C)Nc1cc(/C=C/c2ccc(Cl)cc2)nc2cc(N(C)C)ccc12` (stereo not drawn) showed a pEC50 of under 3.84 and a pIC50 of 6.06.

`CC(=O)Nc1cc2ccc(C)nc2c2nc(C)ccc12` was tested, and the pEC50 was under 3.70 and the pIC50 was under 3.70.
